Values after ≈ are worked out from the molar mass of the structure shown.
What was measured:
[1] = Determination of solubility in synthetic sebum; assay type: physicochemical; conditions: oil or lipid, thermodynamic from solid, 32° C., agitated overnight, HPLC, read-out: Solubility in Liquid Synthetic Sebum
Protocol: Compounds described herein can be tested to evaluate their solubility in lipids. To determine the solubility, a synthetic sebum mixture was used. More specifically, approximately 5 mg of a compound was added into 1.5 ml eppendorf tubes, which was then combined with 0.1 ml of synthetic sebum and then briefly vortexed. Mixtures were placed samples in a shaker pre-heated to 32° C. and then agitated overnight. Prior to sampling for HPLC analysis, tubes were placed in an eppendorf centrifuge and spun at 13000 rpm for 5 min to pellet the insoluble drug portion. Following centrifugation, 20 ul of the top portion of the soluble fraction was sampled, in triplicate, into a 2 ml HPLC vial for analysis and the mass recorded. One ml of THF was then added to each vial to solubilize sebum. To determine their concentrations, HPLC analysis of all compounds was carried out under the same running conditions.

[2] = tested on: hamster ear sebaceous glands; assay: Hamster ear sebaceous gland model, repeat topical application; assay type: in vivo, Syrian golden hamster
Protocol: The Syrian golden hamster ([…]) ear sebaceous gland model was used to evaluate the effect of repeat application of TOFA and TOFA analogs. Male animals were employed since they have larger sebaceous glands than females a consequence of their higher endogenous levels of androgenic hormones. To define compound effects, cross-sections prepared from hamster ears were treated with the neutral lipid-specific stain Oil Red O. Staining results were compared to the untreated ear of the same animal in order to account for any changes in the overall physiological state of the animal as well as potential systemic effects stemming from local drug application.
Typically, compounds were prepared and applied in 40% dimethyl acetamide (DMA)/30% acetone/30% ethanol (vehicle). Animals were typically 10-12 weeks of age and 100-150 g bodyweight at the start of the experiment. Treatment groups consisted of 5-8 animals. Non-anesthetized hamsters were administered the test material onto the ventral surface of the right ear using a pipette at a volume of 20 μl per ear. Materials were gently massaged into the treatment site with a gloved finger for approximately 15 sec. Hamsters received treatment once daily for 15-28 consecutive days. Application of the test articles occurred within the same 4-hour period on each application day. The left ear remained untreated and served as an internal control site. Animals were evaluated daily for general appearance and potential clinical signs related to treatment such as edema, erythema, discoloration or other changes to the ears. Hamsters were also assessed for general health by coat appearance, behavior, and activity level.
Animals were euthanized by CO2 asphyxiation approximately 16-20 h following the final (21st) application. Tissue samples for sebaceous gland analysis were subsequently taken by histology personnel. The right (treated) and left (untreated) ears were carefully removed from euthanized hamsters. A 3.5 mm punch biopsy of the treated ear was marked with a marking dye on the ventral surface. A punch biopsy of the untreated ear was marked with a separate tissue-marking dye on the ventral surface. Tissues were embedded in a labeled mold filled with “Neg 50” cryo-embedding medium and frozen on liquid nitrogen. These blocks were sequentially wrapped in Parafilm® then aluminum foil for storage at −70° C. until required.
To assess sebaceous gland status, ear cross-sections were initially cut at a thickness of approximately 8 μm onto glass slides and immediately fixed with 10% buffered formalin. Sections were stained with the lipid-specific Oil Red O dye by standard methods, covered with Faramount (Dakocytomation, Ca) acrylic mounting medium, cover slipped and then allowed to set. […] Tissue sections stained with Oil Red O were viewed with a Spot RT digital camera mounted on an Olympus BX60 microscope. An image of the section was taken using the 4× microscope objective. The image was saved using the unique animal identification number, slide number, and magnification. Relative sebaceous gland areas (red staining areas) were determined using Image-Pro software (Media Cybernetics Inc., Silver Spring, Md.). The area of image analysis was the dermis which included the region from the epidermal-dermal junction to the midline of the tissue demarcated by the central cartilage line. Data was expressed as percentage of the area of the tissue cross section which was red in color, representative of lipid-containing structures, in comparison to the total area analyzed.
In these experiments, the compound of the invention, TOFA and vehicle were applied onto male hamster ears. At the end of treatment, the hamsters were sacrificed and the area of sebaceous glands in the treated area was determined. […]

[3] = tested on: moderate to severe acne patients; conditions: oral, at 12 weeks; cited from earlier work
[4] = tested on: SZ95 sebocytes; assay: Inhibition of lipid synthesis in SZ95 sebocytes; assay type: cell-based, human; conditions: 96-well microtiter plate format
Protocol: The immortalized human sebocyte cell line, SZ95, was maintained in culture as described in Zouboulis, C. C. et al., J. Invest. Dermatol. (1999), Vol. 113, pp. 1011-1020. Lipid synthesis was stimulated by treating SZ95 cells with arachidonic acid (AA). For measurement of lipid production and lipid inhibition studies, test compounds were dissolved in dimethylsulfoxide (DMSO) and added at the desired concentration in 96-well microtiter plates. The cells were then cultured for up to 72 hours before the plates were washed 3 times with PBS and a final volume of 200 μL PBS/well was added. […] Plate fluorescence was then quantified using a fluorometric plate reader (excitation wavelength: 490 nm; emission wavelength: 590 nm). Inhibition of lipid levels by the test compound was expressed as the % reduction of the fluorescence of AA-stimulated cells in the presence of the test compound relative to the values obtained for the unstimulated control cells. Cell viability was measured by utilizing the conversion of a tetrazolium reagent (MTS) to a colored-formazan product by live cells. […] The color development of the wells was measured using a plate reader at an absorbance of […]. Effect on cell viability by the test compound was expressed as the % reduction of the absorbance for AA-stimulated cells in the presence of the test compound relative to the values obtained for the untreated control cells.

[5] = 21 consecutive days, 75 mM, ear cross-sections (FIG. 3)

CCCCCCCCCCCCCCOc1ccc(C(=O)OCC(F)(F)F)o1 [Compound A, 2,2,2-trifluoroethyl 5-(tetradecyloxy)furan-2-carboxylate]
solubility [1]: 28.9 ± 9.2 mg/mL (≈ 71.1 mM)
inflammatory cell presence in skin sections [2, 5]: No appreciable inflammatory cell presence
sebaceous gland area, histological appearance (Oil Red O) [2, 5]: Reduced sebaceous gland area
average gland area lower in comparison to vehicle-treated animals ([2]; after 21 days of application in 40% DMA/30% acetone/30% ethanol (FIG. 2)): 63.5%
sebaceous gland counts versus control values ([2]; samples prepared two weeks after completion of 21-day treatment): significantly lower
sebaceous gland area compared to TOFA and vehicle (FIG. 1) ([2]; topical daily at 75 mM for 21 days in 40% DMA/30% acetone/30% ethanol): ability to reduce sebaceous gland area

CCCCCCCCCCCCCCOc1ccc(C(=O)OC(C)C)o1 [Compound B, isopropyl 5-(tetradecyloxy)furan-2-carboxylate]
solubility [1]: 43 ± 0.5 mg/mL (≈ 117 mM)

CCCCCCCCCCCCCCOc1ccc(C(=O)OCc2oc(=O)oc2C)o1 [Compound C, (5-methyl-2-oxo-1,3-dioxol-4-yl)methyl 5-(tetradecyloxy)furan-2-carboxylate]
solubility [1]: 13.6 ± 1.9 mg/mL (≈ 31.2 mM)

CCCCCCCCCCCCCCOc1ccc(C(=O)O)o1 [TOFA, 5-(tetradecyloxy)-2-furancarboxylic acid]
solubility [1]: 1.5 ± 0.4 mg/mL (≈ 4.62 mM)
inflammatory cell presence in skin sections [2, 5]: No appreciable inflammatory cell presence
tolerability of repeat topical applications ([2]; hamster, in vivo): well-tolerated

CC(c1cc2ccccc2s1)N(O)C(N)=O (centres unmarked) [Zileuton]
reduction in inflammatory lesions [3]: 71%
reduction of sebum lipids [3]: 65%

CCCCC/C=C\C/C=C\C/C=C\C/C=C\CCCC(=O)O [arachidonic acid]
increase of SZ95 sebocyte lipid levels [4]: approximately 5 fold
